Experimental data published in patent publication US8653263B2 (Janssen Pharmaceutica, priority 2009, dated 2014).

Target: human orexin-2 receptor (Homo sapiens (Human), UniProt O43614)
Test: Human orexin 2 receptor radioligand binding ([3H]-EMPA competition)
Details: HEK293 cells stably expressing human orexin-2 receptor; [3H]-EMPA 5 nM final; apparent Ki=IC50/(1+C/Kd), Kd=2 nM; read-out: OR 2 Ki

Chain of human orexin-2 receptor (O43614 whole entry): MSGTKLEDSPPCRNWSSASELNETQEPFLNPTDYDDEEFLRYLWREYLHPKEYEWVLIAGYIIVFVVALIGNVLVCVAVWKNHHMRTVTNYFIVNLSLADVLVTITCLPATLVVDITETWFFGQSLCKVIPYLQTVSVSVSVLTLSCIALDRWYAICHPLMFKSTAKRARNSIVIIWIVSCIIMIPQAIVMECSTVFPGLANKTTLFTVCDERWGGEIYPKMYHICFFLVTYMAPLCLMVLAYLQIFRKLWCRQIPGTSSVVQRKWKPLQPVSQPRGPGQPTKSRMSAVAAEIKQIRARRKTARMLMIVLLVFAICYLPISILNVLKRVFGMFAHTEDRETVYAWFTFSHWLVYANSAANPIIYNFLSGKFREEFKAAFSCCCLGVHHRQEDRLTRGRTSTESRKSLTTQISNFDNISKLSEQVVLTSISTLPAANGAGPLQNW

Row | Ki [µM] | Compound
1 | 0.865 | Cc1cc(N2CC3CN(C(=O)c4ccccc4-n4nccn4)CC3C2)nc(C)n1 (stereo not drawn) [Example 122, 2-(2,6-Dimethylpyrimidin-4-yl)-5-{[2-(2H-1,2,3-triazol-2-yl)phenyl]carbonyl}octahydropyrrolo[3,4-c]pyrrole]
2 | 0.044 | Cc1ccc(-n2nccn2)c(C(=O)N2CC3CN(c4nc(C)cnc4C)CC3C2)c1 (stereo not drawn) [Example 123, [5-(3,6-Dimethyl-pyrazin-2-yl)-hexahydro-pyrrolo[3,4-c]pyrrol-2-yl]-(5-methyl-2-[1,2,3]triazol-2-yl-phenyl)-methanone]
3 | 0.422 | Cc1cc(N(C)C)nc(N2CC3CN(C(=O)c4cc(F)ccc4-n4nccn4)CC3C2)n1 (stereo not drawn) [Example 124, 2-[5-{[5-Fluoro-2-(2H-1,2,3-triazol-2-yl)phenyl]carbonyl}hexahydropyrrolo[3,4-c]pyrrol-2(1H)-yl]-N,N,6-trimethylpyrimidin-4-amine]
4 | 0.055 | Cc1ccc(-n2nccn2)c(C(=O)N2CC3CN(c4nccc(-c5ccccc5)n4)CC3C2)c1 (stereo not drawn) [Example 127, 2-{[5-Methyl-2-(2H-1,2,3-triazol-2-yl)phenyl]carbonyl}-5-(4-phenylpyrimidin-2-yl)octahydropyrrolo[3,4-c]pyrrole]
5 | 0.111 | COc1cc(OC)nc(N2CC3CN(C(=O)c4cc(C)ccc4-n4nccn4)CC3C2)n1 (stereo not drawn) [Example 129, 2-(4,6-Dimethoxypyrimidin-2-yl)-5-{[5-methyl-2-(2H-1,2,3-triazol-2-yl)phenyl]carbonyl}octahydropyrrolo[3,4-c]pyrrole]
6 | 0.09 | Cc1ccnc(N2CC3CN(C(=O)c4ccccc4-n4nccn4)CC3C2)n1 (stereo not drawn) [Example 135, 2-(4-Methylpyrimidin-2-yl)-5-{[2-(2H-1,2,3-triazol-2-yl)phenyl]carbonyl}octahydro pyrrolo[3,4-c]pyrrole]
7 | 0.03 | COc1cc(OC)nc(N2CC3CN(C(=O)c4ccccc4-c4cccs4)CC3C2)n1 (stereo not drawn) [Example 138, 2-(4,6-Dimethoxypyrimidin-2-yl)-5-[(2-thiophen-2-ylphenyl)carbonyl]octahydro pyrrolo[3,4-c]pyrrole]
8 | 0.315 | COc1cc(OC)nc(N2CC3CN(C(=O)c4nc(C)sc4-c4ccccc4F)CC3C2)n1 (stereo not drawn) [Example 142, 2-(4,6-Dimethoxypyrimidin-2-yl)-5-{[5-(2-fluorophenyl)-2-methyl-1,3-thiazol-4-yl]carbonyl}octahydropyrrolo[3,4-c]pyrrole]
9 | 0.085 | CCOc1cccc(N2CC3CN(C(=O)c4ccccc4-n4nccn4)CC3C2)n1 (stereo not drawn) [Example 147, 2-(6-Ethoxypyridin-2-yl)-5-{[2-(2H-1,2,3-triazol-2-yl)phenyl]carbonyl}octahydro pyrrolo[3,4-c]pyrrole]
10 | 0.092 | COc1ccnc(N2CC3CN(C(=O)c4cc(F)ccc4-c4ncccn4)CC3C2)n1 (stereo not drawn) [Example 150, 2-[(5-Fluoro-2-pyrimidin-2-ylphenyl)carbonyl]-5-(4-methoxypyrimidin-2-yl)octahydropyrrolo[3,4-c]pyrrole]
11 | 0.125 | O=C(c1ccccc1-n1nccn1)N1CC2CN(c3ccc(F)cn3)CC2C1 (stereo not drawn) [Example 152, 2-(5-Fluoropyridin-2-yl)-5-{[2-(2H-1,2,3-triazol-2-yl)phenyl]carbonyl}octahydro pyrrolo[3,4-c]pyrrole]
12 | 0.033 | Cc1cnc(C)c(N2CC3CN(C(=O)c4ccccc4-n4nccn4)CC3C2)n1 (stereo not drawn) [Example 155, 2-(3,6-Dimethylpyrazin-2-yl)-5-{[2-(2H-1,2,3-triazol-2-yl)phenyl]carbonyl}octahydropyrrolo[3,4-c]pyrrole]
13 | 0.039 | COc1ccnc(N2CC3CN(C(=O)c4ccccc4-n4nccn4)CC3C2)n1 (stereo not drawn) [Example 156, 2-(4-Methoxypyrimidin-2-yl)-5-{[2-(2H-1,2,3-triazol-2-yl)phenyl]carbonyl}octahydropyrrolo[3,4-c]pyrrole]
14 | 0.055 | Cc1cncc(N2CC3CN(C(=O)c4ccc(F)cc4-n4nccn4)CC3C2)n1 (stereo not drawn) [Example 158, 2-{[4-Fluoro-2-(2H-1,2,3-triazol-2-yl)phenyl]carbonyl}-5-(6-methylpyrazin-2-yl)octahydropyrrolo[3,4-c]pyrrole]
15 | 0.045 | COc1ccnc(N2CC3CN(C(=O)c4ccc(F)cc4-n4nccn4)CC3C2)n1 (stereo not drawn) [Example 159, 2-{[4-Fluoro-2-(2H-1,2,3-triazol-2-yl)phenyl]carbonyl}-5-(4-methoxypyrimidin-2-yl)octahydropyrrolo[3,4-c]pyrrole]
16 | 0.058 | COc1cc(OC)nc(N2CC3CN(C(=O)c4ccc(F)cc4-n4nccn4)CC3C2)n1 (stereo not drawn) [Example 160, 2-(4,6-Dimethoxypyrimidin-2-yl)-5-{[4-fluoro-2-(2H-1,2,3-triazol-2-yl)phenyl]carbonyl}octahydropyrrolo[3,4-c]pyrrole]

More lines, now with the values behind:

Row | Compound | Ki [µM]
17 | COc1ccc(N2CC3CN(C(=O)c4ccccc4-c4cccs4)CC3C2)nc1 (stereo not drawn) [Example 125, 2-(5-Methoxypyridin-2-yl)-5-[(2-thiophen-2-ylphenyl)carbonyl]octahydropyrrolo[3,4-c]pyrrole] | 0.901
18 | CCOc1ccc2ccccc2c1C(=O)N1CC2CN(c3nccc(-c4ccccc4)n3)CC2C1 (stereo not drawn) [Example 126, 2-[(2-Ethoxynaphthalen-1-yl)carbonyl]-5-(4-phenylpyrimidin-2-yl)octahydro pyrrolo[3,4-c]pyrrole] | 0.095
19 | O=C(c1ccccc1-n1nccn1)N1CC2CN(c3nccc(-c4ccccc4)n3)CC2C1 (stereo not drawn) [Example 131, 2-(4-Phenylpyrimidin-2-yl)-5-{[2-(2H-1,2,3-triazol-2-yl)phenyl]carbonyl}octahydro pyrrolo[3,4-c]pyrrole] | 0.075
20 | Cc1cc(C)nc(N2CC3CN(C(=O)c4nc(C)sc4-c4ccccc4F)CC3C2)n1 (stereo not drawn) [Example 132, 2-(4,6-Dimethylpyrimidin-2-yl)-5-{[5-(2-fluorophenyl)-2-methyl-1,3-thiazol-4-yl]carbonyl}octahydropyrrolo[3,4-c]pyrrole] | 0.125
21 | Cc1cccc(N2CC3CN(C(=O)c4ccccc4-c4cccs4)CC3C2)n1 (stereo not drawn) [Example 134, 2-(6-Methylpyridin-2-yl)-5-[(2-thiophen-2-ylphenyl)carbonyl]octahydropyrrolo[3,4-c]pyrrole] | 0.102
22 | Cc1ccnc(N2CC3CN(C(=O)c4ccccc4-c4cccs4)CC3C2)c1 (stereo not drawn) [Example 136, 2-(4-Methylpyridin-2-yl)-5-[(2-thiophen-2-ylphenyl)carbonyl]octahydropyrrolo[3,4-c]pyrrole] | 0.104
23 | COc1cccc(N2CC3CN(C(=O)c4ccccc4-c4cccs4)CC3C2)n1 (stereo not drawn) [Example 137, 2-(6-Methoxypyridin-2-yl)-5-[(2-thiophen-2-ylphenyl)carbonyl]octahydro pyrrolo[3,4-c]pyrrole] | 0.05
24 | O=C(c1ccccc1-c1cccs1)N1CC2CN(c3nc4ccccc4o3)CC2C1 (stereo not drawn) [Example 139, 2-{5-[(2-Thiophen-2-ylphenyl)carbonyl]hexahydropyrrolo[3,4-c]pyrrol-2(1H)-yl}-1,3-benzoxazole] | 0.063
25 | O=C(c1ccccc1-c1cccs1)N1CC2CN(c3ncccc3C(F)(F)F)CC2C1 (stereo not drawn) [Example 140, 2-[(2-Thiophen-2-ylphenyl)carbonyl]-5-[3-(trifluoromethyl)pyridin-2-yl]octahydro pyrrolo[3,4-c]pyrrole] | 0.119
26 | O=C(c1ccccc1-c1nnc[nH]1)N1CC2CN(c3nccc(-c4ccccc4)n3)CC2C1 (stereo not drawn) [Example 141, [5-(4-Phenyl-pyrimidin-2-yl)-hexahydro-pyrrolo[3,4-c]pyrrol-2-yl]-[2-(4H-[1,2,4]triazol-3-yl)-phenyl]-methanone] | 1.03
27 | O=C(c1ccccc1-n1nccn1)N1CC2CN(c3nccc(-c4cccs4)n3)CC2C1 (stereo not drawn) [Example 143, 2-(4-Thiophen-2-ylpyrimidin-2-yl)-5-{[2-(2H-1,2,3-triazol-2-yl)phenyl]carbonyl}octahydropyrrolo[3,4-c]pyrrole] | 0.081
28 | O=C(c1ccccc1-n1nccn1)N1CC2CN(c3nc4ccccc4o3)CC2C1 (stereo not drawn) [Example 144, 2-[5-{[2-(2H-1,2,3-Triazol-2-yl)phenyl]carbonyl}hexahydropyrrolo[3,4-c]pyrrol-2(1H)-yl]-1,3-benzoxazole] | 0.087
29 | CCOc1ccc2ccccc2c1C(=O)N1CC2CN(c3cnc4ccccc4n3)CC2C1 (stereo not drawn) [Example 145, 2-{5-[(2-Ethoxynaphthalen-1-yl)carbonyl]hexahydropyrrolo[3,4-c]pyrrol-2(1H)-yl}quinoxaline] | 0.045
30 | O=C(c1cc(F)ccc1-c1ncccn1)N1CC2CN(c3cnc4ccccc4n3)CC2C1 (stereo not drawn) [Example 146, 2-{5-[(5-Fluoro-2-pyrimidin-2-ylphenyl)carbonyl]hexahydropyrrolo[3,4-c]pyrrol-2(1H)-yl}quinoxaline] | 0.027
31 | O=C(c1cc(F)ccc1-c1ncccn1)N1CC2CN(c3nccc(C(F)(F)F)n3)CC2C1 (stereo not drawn) [Example 148, 2-[(5-Fluoro-2-pyrimidin-2-ylphenyl)carbonyl]-5-[4-(trifluoromethyl)pyrimidin-2-yl]octahydropyrrolo[3,4-c]pyrrole] | 0.129
32 | O=C(c1ccccc1-n1nccn1)N1CC2CN(c3cnc4ccccc4n3)CC2C1 (stereo not drawn) [Example 149, 2-[5-{[2-(2H-1,2,3-Triazol-2-yl)phenyl]carbonyl}hexahydropyrrolo[3,4-c]pyrrol-2(1H)-yl]quinoxaline] | 0.173
33 | O=C(c1ccccc1-n1nccn1)N1CC2CN(c3nccc(-c4ccco4)n3)CC2C1 (stereo not drawn) [Example 151, 2-(4-Furan-2-ylpyrimidin-2-yl)-5-{[2-(2H-1,2,3-triazol-2-yl)phenyl]carbonyl}octahydropyrrolo[3,4-c]pyrrole] | 0.184
34 | O=C(c1ccccc1-n1nccn1)N1CC2CN(c3nccc(C(F)(F)F)n3)CC2C1 (stereo not drawn) [Example 153, 2-{[2-(2H-1,2,3-Triazol-2-yl)phenyl]carbonyl}-5-[4-(trifluoromethyl)pyrimidin-2-yl]octahydropyrrolo[3,4-c]pyrrole] | 0.075
35 | COc1ccnc(N2CC3CN(C(=O)c4ccccc4-c4ncn[nH]4)CC3C2)n1 (stereo not drawn) [Example 154, 2-(4-Methoxypyrimidin-2-yl)-5-{[2-(1H-1,2,4-triazol-5-yl)phenyl]carbonyl}octahydropyrrolo[3,4-c]pyrrole] | 0.241
36 | COc1ccc(C(=O)N2CC3CN(c4nc5ccc(Cl)cc5s4)CC3C2)c(OC)c1 (stereo not drawn) [Example 163, 6-Chloro-2-{5-[(2,4-dimethoxyphenyl)carbonyl]hexahydropyrrolo[3,4-c]pyrrol-2(1H)-yl}-1,3-benzothiazole] | 0.38
